Source: ChEMBL document CHEMBL3046556, “Microwave-assisted synthesis and antimicrobial screening of new imidazole derivatives bearing 4-thiazolidinone nucleus” (2013)
The source made the active and inactive calls.

Tests used:
Candida albicans = assay: Antifungal activity against Candida albicans MTCC 227 assessed as growth inhibition at 12.5 to 1000 ug/mL after 48 hr by broth dilution method; format: functional, organism-based
Aspergillus clavatus = assay: Antifungal activity against Aspergillus clavatus MTCC 1323 assessed as growth inhibition at 12.5 to 1000 ug/mL after 48 hr by broth dilution method; format: functional, organism-based
Escherichia coli [1] = assay: Antibacterial activity against Escherichia coli MTCC 443 assessed as growth inhibition at 12.5 to 1000 ug/mL after 24 hr by NCCLS broth dilution method; format: functional, organism-based
Streptococcus pyogenes = assay: Antibacterial activity against Streptococcus pyogenes MTCC 442 assessed as growth inhibition at 12.5 to 1000 ug/mL after 24 hr by NCCLS broth dilution method; format: functional, organism-based
Pseudomonas aeruginosa = assay: Antibacterial activity against Pseudomonas aeruginosa MTCC 1688 assessed as growth inhibition at 12.5 to 1000 ug/mL after 24 hr by NCCLS broth dilution method; format: functional, organism-based
Aspergillus niger = assay: Antifungal activity against Aspergillus niger MTCC 282 assessed as growth inhibition at 12.5 to 1000 ug/mL after 48 hr by broth dilution method; format: functional, organism-based
Staphylococcus aureus [2] = assay: Antibacterial activity against Staphylococcus aureus MTCC 96 assessed as growth inhibition at 12.5 to 1000 ug/mL after 24 hr by NCCLS broth dilution method; format: functional, organism-based
Staphylococcus aureus [3] = assay: Antibacterial activity against Staphylococcus aureus MTCC 96 assessed as growth inhibition after 24 hr by NCCLS broth dilution method; format: functional; settings: MTCC 96, 24 h
Escherichia coli [4] = assay: Antibacterial activity against Escherichia coli MTCC 443 assessed as growth inhibition after 24 hr by NCCLS broth dilution method; format: functional; settings: MTCC 443, 24 h

CC(=O)c1ccc(N2C(=O)/C(=C\c3cccc(O)c3)N=C2C)cc1
inactive: growth inhibition (GI) (Candida albicans) | growth inhibition (GI) (Aspergillus clavatus) | growth inhibition (GI) (Escherichia coli [1]) | growth inhibition (GI) (Streptococcus pyogenes) | growth inhibition (GI) (Pseudomonas aeruginosa) | growth inhibition (GI) (Aspergillus niger) | growth inhibition (GI) (Staphylococcus aureus [2])

CC1=N/C(=C/c2cccc(O)c2)C(=O)N1c1ccc(/C(C)=N/NC(N)=S)cc1
1000 mg/L: MIC (Escherichia coli [4])
active: growth inhibition (GI) (Candida albicans) | growth inhibition (GI) (Aspergillus clavatus) | growth inhibition (GI) (Aspergillus niger)
inactive: growth inhibition (GI) (Streptococcus pyogenes) | growth inhibition (GI) (Pseudomonas aeruginosa)
500 mg/L: MIC (Staphylococcus aureus [3])

CC(=O)c1ccc(N2C(=O)/C(=C\c3cccc(C)c3)N=C2C)cc1
inactive: growth inhibition (GI) (Candida albicans) | growth inhibition (GI) (Aspergillus clavatus) | growth inhibition (GI) (Escherichia coli [1]) | growth inhibition (GI) (Streptococcus pyogenes) | growth inhibition (GI) (Pseudomonas aeruginosa) | growth inhibition (GI) (Aspergillus niger) | growth inhibition (GI) (Staphylococcus aureus [2])

CC1=N/C(=C/c2ccccc2)C(=O)N1c1ccc(/C(C)=N/NC(N)=S)cc1
inactive: growth inhibition (GI) (Escherichia coli [1]) | growth inhibition (GI) (Streptococcus pyogenes) | growth inhibition (GI) (Pseudomonas aeruginosa) | growth inhibition (GI) (Staphylococcus aureus [2])
active: growth inhibition (GI) (Candida albicans) | growth inhibition (GI) (Aspergillus clavatus) | growth inhibition (GI) (Aspergillus niger)

CC(=O)c1ccc(N2C(=O)/C(=C\c3ccccc3[N+](=O)[O-])N=C2C)cc1
inactive: growth inhibition (GI) (Candida albicans) | growth inhibition (GI) (Aspergillus clavatus) | growth inhibition (GI) (Escherichia coli [1]) | growth inhibition (GI) (Streptococcus pyogenes) | growth inhibition (GI) (Pseudomonas aeruginosa) | growth inhibition (GI) (Aspergillus niger) | growth inhibition (GI) (Staphylococcus aureus [2])

COc1ccccc1/C=C1/N=C(C)N(c2ccc(/C(C)=N/NC(N)=S)cc2)C1=O
active: growth inhibition (GI) (Candida albicans) | growth inhibition (GI) (Aspergillus clavatus) | growth inhibition (GI) (Aspergillus niger)
inactive: growth inhibition (GI) (Escherichia coli [1]) | growth inhibition (GI) (Streptococcus pyogenes) | growth inhibition (GI) (Pseudomonas aeruginosa) | growth inhibition (GI) (Staphylococcus aureus [2])

COc1ccc(/C=C2/N=C(C)N(c3ccc(C(C)=O)cc3)C2=O)cc1
inactive: growth inhibition (GI) (Candida albicans) | growth inhibition (GI) (Aspergillus clavatus) | growth inhibition (GI) (Streptococcus pyogenes) | growth inhibition (GI) (Pseudomonas aeruginosa) | growth inhibition (GI) (Aspergillus niger)
1000 mg/L: MIC (Staphylococcus aureus [3]) | MIC (Escherichia coli [4])

CC1=N/C(=C/c2ccccc2F)C(=O)N1c1ccc(/C(C)=N/NC(N)=S)cc1
inactive: growth inhibition (GI) (Escherichia coli [1]) | growth inhibition (GI) (Streptococcus pyogenes) | growth inhibition (GI) (Pseudomonas aeruginosa) | growth inhibition (GI) (Staphylococcus aureus [2])
active: growth inhibition (GI) (Candida albicans) | growth inhibition (GI) (Aspergillus clavatus) | growth inhibition (GI) (Aspergillus niger)

CC(=O)c1ccc(N2C(=O)/C(=C\c3ccccc3F)N=C2C)cc1
inactive: growth inhibition (GI) (Candida albicans) | growth inhibition (GI) (Aspergillus clavatus) | growth inhibition (GI) (Escherichia coli [1]) | growth inhibition (GI) (Streptococcus pyogenes) | growth inhibition (GI) (Pseudomonas aeruginosa) | growth inhibition (GI) (Aspergillus niger) | growth inhibition (GI) (Staphylococcus aureus [2])

CC(=O)c1ccc(N2C(=O)/C(=C\c3ccc(F)cc3)N=C2C)cc1
inactive: growth inhibition (GI) (Candida albicans) | growth inhibition (GI) (Aspergillus clavatus) | growth inhibition (GI) (Escherichia coli [1]) | growth inhibition (GI) (Streptococcus pyogenes) | growth inhibition (GI) (Pseudomonas aeruginosa) | growth inhibition (GI) (Aspergillus niger) | growth inhibition (GI) (Staphylococcus aureus [2])

CC1=N/C(=C/c2ccc(Cl)cc2)C(=O)N1c1ccc(/C(C)=N/NC(N)=S)cc1
inactive: growth inhibition (GI) (Escherichia coli [1]) | growth inhibition (GI) (Streptococcus pyogenes) | growth inhibition (GI) (Pseudomonas aeruginosa) | growth inhibition (GI) (Staphylococcus aureus [2])
active: growth inhibition (GI) (Candida albicans) | growth inhibition (GI) (Aspergillus clavatus) | growth inhibition (GI) (Aspergillus niger)

CC1=N/C(=C/c2ccc(F)cc2)C(=O)N1c1ccc(/C(C)=N/NC(N)=S)cc1
inactive: growth inhibition (GI) (Escherichia coli [1]) | growth inhibition (GI) (Streptococcus pyogenes) | growth inhibition (GI) (Pseudomonas aeruginosa) | growth inhibition (GI) (Staphylococcus aureus [2])
active: growth inhibition (GI) (Candida albicans) | growth inhibition (GI) (Aspergillus clavatus) | growth inhibition (GI) (Aspergillus niger)

CC(=O)c1ccc(N2C(=O)/C(=C\c3ccccc3Cl)N=C2C)cc1
inactive: growth inhibition (GI) (Candida albicans) | growth inhibition (GI) (Aspergillus clavatus) | growth inhibition (GI) (Escherichia coli [1]) | growth inhibition (GI) (Streptococcus pyogenes) | growth inhibition (GI) (Pseudomonas aeruginosa) | growth inhibition (GI) (Aspergillus niger) | growth inhibition (GI) (Staphylococcus aureus [2])

CC(=O)c1ccc(N2C(=O)/C(=C\c3ccc(Cl)cc3)N=C2C)cc1
inactive: growth inhibition (GI) (Candida albicans) | growth inhibition (GI) (Aspergillus clavatus) | growth inhibition (GI) (Escherichia coli [1]) | growth inhibition (GI) (Streptococcus pyogenes) | growth inhibition (GI) (Pseudomonas aeruginosa) | growth inhibition (GI) (Aspergillus niger) | growth inhibition (GI) (Staphylococcus aureus [2])

CC1=N/C(=C/c2ccccc2Cl)C(=O)N1c1ccc(/C(C)=N/NC(N)=S)cc1
active: growth inhibition (GI) (Candida albicans) | growth inhibition (GI) (Aspergillus clavatus) | growth inhibition (GI) (Aspergillus niger)
inactive: growth inhibition (GI) (Escherichia coli [1]) | growth inhibition (GI) (Streptococcus pyogenes) | growth inhibition (GI) (Pseudomonas aeruginosa) | growth inhibition (GI) (Staphylococcus aureus [2])

CC(=O)c1ccc(N2C(=O)/C(=C\c3ccccc3C)N=C2C)cc1
inactive: growth inhibition (GI) (Candida albicans) | growth inhibition (GI) (Aspergillus clavatus) | growth inhibition (GI) (Escherichia coli [1]) | growth inhibition (GI) (Streptococcus pyogenes) | growth inhibition (GI) (Pseudomonas aeruginosa) | growth inhibition (GI) (Aspergillus niger) | growth inhibition (GI) (Staphylococcus aureus [2])

CC(=O)c1ccc(N2C(=O)/C(=C\c3ccc([N+](=O)[O-])cc3)N=C2C)cc1
inactive: growth inhibition (GI) (Candida albicans) | growth inhibition (GI) (Aspergillus clavatus) | growth inhibition (GI) (Escherichia coli [1]) | growth inhibition (GI) (Streptococcus pyogenes) | growth inhibition (GI) (Pseudomonas aeruginosa) | growth inhibition (GI) (Aspergillus niger) | growth inhibition (GI) (Staphylococcus aureus [2])

CC1=N/C(=C/c2ccccc2[N+](=O)[O-])C(=O)N1c1ccc(/C(C)=N/NC(N)=S)cc1
active: growth inhibition (GI) (Candida albicans) | growth inhibition (GI) (Aspergillus clavatus) | growth inhibition (GI) (Aspergillus niger)
inactive: growth inhibition (GI) (Escherichia coli [1]) | growth inhibition (GI) (Streptococcus pyogenes) | growth inhibition (GI) (Pseudomonas aeruginosa) | growth inhibition (GI) (Staphylococcus aureus [2])

CC(=O)c1ccc(N2C(=O)/C(=C\c3ccccc3)N=C2C)cc1
inactive: growth inhibition (GI) (Candida albicans) | growth inhibition (GI) (Aspergillus clavatus) | growth inhibition (GI) (Escherichia coli [1]) | growth inhibition (GI) (Streptococcus pyogenes) | growth inhibition (GI) (Pseudomonas aeruginosa) | growth inhibition (GI) (Aspergillus niger) | growth inhibition (GI) (Staphylococcus aureus [2])

CC1=N/C(=C/c2ccccc2C)C(=O)N1c1ccc(/C(C)=N/NC(N)=S)cc1
inactive: growth inhibition (GI) (Escherichia coli [1]) | growth inhibition (GI) (Streptococcus pyogenes) | growth inhibition (GI) (Pseudomonas aeruginosa) | growth inhibition (GI) (Staphylococcus aureus [2])
active: growth inhibition (GI) (Candida albicans) | growth inhibition (GI) (Aspergillus clavatus) | growth inhibition (GI) (Aspergillus niger)

CC1=N/C(=C/c2ccc([N+](=O)[O-])cc2)C(=O)N1c1ccc(/C(C)=N/NC(N)=S)cc1
inactive: growth inhibition (GI) (Escherichia coli [1]) | growth inhibition (GI) (Streptococcus pyogenes) | growth inhibition (GI) (Pseudomonas aeruginosa) | growth inhibition (GI) (Staphylococcus aureus [2])
active: growth inhibition (GI) (Candida albicans) | growth inhibition (GI) (Aspergillus clavatus) | growth inhibition (GI) (Aspergillus niger)
